Like-named read-outs stand apart in the source and are kept apart here.
Tests used:
[1] = target: T1, 5-HT3A-glvM3M4 (Mus musculus, UniProt P23979); test: Whole cell patch clamp of HEK293T cells transiently expressing 5-HT3A-glvM3M4; format: cell-based
T1 sequence (P23979 24-326 limits assumed): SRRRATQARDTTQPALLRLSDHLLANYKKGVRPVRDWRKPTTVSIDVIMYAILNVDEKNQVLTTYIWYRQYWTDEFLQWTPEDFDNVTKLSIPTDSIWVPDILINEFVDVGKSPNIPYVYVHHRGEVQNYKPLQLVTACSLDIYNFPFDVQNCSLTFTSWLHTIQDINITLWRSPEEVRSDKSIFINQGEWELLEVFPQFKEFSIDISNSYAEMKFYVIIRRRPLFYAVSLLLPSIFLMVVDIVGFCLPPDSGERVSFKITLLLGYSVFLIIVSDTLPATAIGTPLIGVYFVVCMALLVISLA

[2] = target: T2, 5-HT3A (Mus musculus, UniProt P23979); test: Whole cell patch clamp of HEK293T cells transiently expressing 5-HT3A; format: cell-based; conditions: HEK293T cells expressing 5-HT3A
T2 sequence (P23979 24-489): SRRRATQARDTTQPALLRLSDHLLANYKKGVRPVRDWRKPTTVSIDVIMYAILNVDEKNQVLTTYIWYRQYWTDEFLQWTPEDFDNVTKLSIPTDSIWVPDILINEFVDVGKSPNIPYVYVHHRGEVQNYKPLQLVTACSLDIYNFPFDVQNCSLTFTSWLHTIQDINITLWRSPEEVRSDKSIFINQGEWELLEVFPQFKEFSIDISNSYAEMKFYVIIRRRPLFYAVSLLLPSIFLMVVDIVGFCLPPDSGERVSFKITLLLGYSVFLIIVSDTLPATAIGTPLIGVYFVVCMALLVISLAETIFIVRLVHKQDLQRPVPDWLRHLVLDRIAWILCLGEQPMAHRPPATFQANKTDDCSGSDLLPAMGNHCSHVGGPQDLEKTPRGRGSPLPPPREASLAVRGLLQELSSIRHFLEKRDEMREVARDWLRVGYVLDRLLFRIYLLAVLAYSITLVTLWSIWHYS

[3] = target: 5-HT3A-glvM3M4 (Mus musculus, UniProt P23979); format: cell-based
[4] = target: T2, 5-HT3A; test: Two-electrode voltage clamp of Xenopus oocytes expressing 5-HT3A wild type; format: cell-based
[5] = target: mouse 5-HT3A receptors; conditions: competitive antagonist; ref Costall et al., 1987; cited from earlier work

NCCc1c[nH]c2ccc(O)cc12 [5-HT, 5-hydroxytryptamine]
whole cell currents evoked ([1]; HEK293T cells expressing 5-HT3A-glvM3M4, 5-HT 1 μM): 1 to 5 nA
whole cell currents evoked ([2]; 5-HT 1 μM): 1 to 5 nA

Cc1cccc(C)c1NC(=O)C[N+](C)(C)C [QX-222]
inhibition of 5-HT EC70 currents ([3]; 5-HT3A-glvM3M4, QX-222 20 μM, n = 6): 79 ± 2%
inhibition of 5-HT EC70 currents ([4]; 5-HT3A-wt, QX-222 20 μM, n = 6): 80 ± 4%

COc1ccc([C@@H]2Sc3ccccc3N(CCN(C)C)C(=O)[C@@H]2OC(C)=O)cc1 [diltiazem]
IC50 [3]: 12 ± 3 µM
IC50 [4]: 16 ± 1 µM

Cc1nccn1CC1CCc2c(c3ccccc3n2C)C1=O (centres unmarked) [ondansetron]
IC50 for inhibition of mouse 5-HT3A receptors [5]: high picomolar
inhibition of whole cell currents evoked by 1 μM 5-HT ([1]; HEK293T cells expressing 5-HT3A-glvM3M4, 100 nM ondansetron): totally inhibited
inhibition of 5-HT currents ([3]; 5-HT3A-glvM3M4, EC30 concentration of 5-HT with ondansetron at 1/3 of the 5-HT concentration, n = 4): 98.8 ± 0.4%
inhibition of 5-HT currents ([4]; 5-HT3A, EC30 concentration of 5-HT with ondansetron at 1/3 of the 5-HT concentration, n = 3): 98.2 ± 0.4%
inhibition of whole cell currents evoked by 1 μM 5-HT ([2]; 100 nM ondansetron): totally inhibited

picrotoxin
fold lower IC50 in 5-HT3A-glvM3M4 than in wild type ([3]; picrotoxin IC50, 5-HT3A-glvM3M4 versus 5-HT3A-wt): 10 fold
IC50 ([3]; read-out: picrotoxin IC50, 5-HT3A-glvM3M4, coapplied with 5-HT EC30 concentration, n = 6): 6.8 ± 1.1 µM
IC50 ([4]; read-out: picrotoxin IC50, 5-HT3A-wt, coapplied with 5-HT EC30 concentration, n = 3): 60 ± 10 µM
